Assay results taken from US20140329863A1 (priority 2011, published 2014).
≈ marks a conversion by molar mass, not a printed value. Where two headings read alike, the source gives them in different places.

Experiments:
[1] = test system: ScN2a-c13 cells; assay: cells; assay type: cell-based; settings: Mus musculus; N=3; read-out: EC50 by calcein for cell viability
[2] = test system: PrP^Sc in dividing ScN2a-cl3 cells; assay type: cell-based, mouse; design: Dividing ELISA pEC50 (μM) 1st Expt. / Dividing ELISA pEC50 (μM) 2nd Expt. / Dividing ELISA pEC50 (μM) 3rd Expt. / Dividing ELISA pEC50 (μM) Mean: unit not given here
[3] = test system: PrP^Sc in dividing ScN2a-c13 cells; settings: read-out: EC50 (ELISA), reduction of PrP^Sc load; dividing ScN2a-c13 cells
[4] = physchem
[5] = in vitro; settings: dog, MDCK-MDR1
[6] = test system: P-gp (MDR1); assay: in vitro; settings: dog, MDCK-MDR1
[7] = Toleration studies in mice
[8] = Hepatic microsomal stability, rat
[9] = Hepatic microsomal stability, mouse; settings: for half-life at 1 μM: pH 7.4
[10] = Hepatic microsomal stability, human; settings: for half-life at 1 μM: human, pH 7.4
[11] = Single-dose pharmacokinetics in FVB mice (oral gavage, IV)
[12] = Multidose (three-day) pharmacokinetics in liquid diet in FVB mice; settings: FVB, mouse, in vivo, three-day dosing in liquid diet
[13] = test system: PrP^C in T98G cells; assay type: cell-based, human; settings: read-out: EC50 (μM) ELISA potency, PrP^C in T98G cells
[14] = test system: PrP^C in N2a-c13 cells; assay type: cell-based, mouse; settings: read-out: EC50 (μM) ELISA in N2a-cl3 cells (value in parentheses)
[15] = pH 7.4
[16] = physchem; remark: listed apart in the source
[17] = test system: MDCK-MDR^1 cells (P-glycoprotein); assay: Bidirectional MDCK-MDR1 cell permeability; assay type: in vitro ADME, canine
Experimental: MDCK-MDR^1 cells were grown to confluence for 5-10 days on 1-μm filters in 24-well plates {Hilgers, 1990}. Aliquots of DMSO stocks were diluted into Hank's balanced salt solution (HBSS), pH 7.4, containing […] to give 10-μM solute concentration. The solute containing donor solutions were transferred to either the apical or basolateral chamber of the permeability diffusion apparatus. Receiver solutions consisted of HBSS (pH 7.4) containing 25 mM HEPES+0.05% PS80. Sequential samples of transported solute were taken at 20-min intervals using an automated liquid handling platform. The concentration of transported solute during each sampling interval was determined by HPLC/UV/MS. Permeability coefficients were calculated for each sampling interval. The average and standard deviation from the intervals are reported. Mass balance in the system was ascertained by comparing the sum of total transported solute and remaining donor solute with the starting mass of solute and is expressed as a percentage of donor solute at time zero. […] In the event of mass balance less than 70%, the cell monolayers were extracted with ACN and analyzed for the solute of interest. Determinations were conducted in duplicate.

[18] = test system: PrP^Sc in nondividing ScN2a-cl3 cells; assay type: cell-based, mouse; settings: read-out: Non-Dividing ELISA EC50 (μM) Mean (n = 3); ScN2a-c13 non-dividing cells; mean n = 3
[19] = […]
[20] = test system: N2a-cl3 cells; assay: cells; settings: Mus musculus, N2a-cl3, read-out: Dividing Calcein EC50 (μM) Mean (n = 3)
[21] = test system: MDCK-MDR1 cells; assay: Permeability in MDCK-MDR1 cells; settings: MDR1-MDCK cell monolayers; for Permeability PA→B: apical to basal; for Permeability PB→A: basal to apical
[22] = not given; remark: listed apart in the source
[23] = ScN2a-cl3 dividing cells, 1st determination
[24] = ScN2a-cl3 dividing cells, 2nd determination
[25] = ScN2a-cl3 dividing cells, 3rd determination
[26] = ScN2a-cl3 dividing cells, mean of three determinations
[27] = read-out: Antiprion activity ScN2a-cl3 EC50, ScN2a-cl3 cells
[28] = read-out: Dividing ELISA EC50 (μM) 1st Expt., ScN2a-cl3 dividing cells, 1st determination
[29] = read-out: Dividing ELISA EC50 (μM) 2nd Expt., ScN2a-cl3 dividing cells, 2nd determination
[30] = read-out: Dividing ELISA EC50 (μM) 3rd Expt., ScN2a-cl3 dividing cells, 3rd determination
[31] = read-out: Dividing ELISA EC50 (μM) Mean, ScN2a-cl3 dividing cells, mean of three determinations

In the case of `Cc1cccc(Nc2nc(-c3cc4ccccc4o3)cs2)n1` [IND22, (4-Benzofuran-2-yl-thiazol-2-yl)-(6-methyl-pyridin-2-yl)-amine], the EC50 [1] is reported as > 10000 nM, the EC50 ([2]; AMT analogs tested for potency) is reported as 1.46 µM and the EC50 ([2]; Table 29, 2-AMT analogs tested for potency, usually n = 3 or more) is reported as 1.46 µM. For the same compound, the EC50 [3] was 1460 nM, the “solubility in FaSSIF (in words)” value (fasted-state simulated intestinal fluid) was “higher solubility” and the “solubility at pH 2.0 (in words)” value (pH 2 (HCl) buffer) was “higher solubility”. The solubility ([4]; FaSSIF) was 59 µM (≈ 18.1 µg/mL), the solubility ([4]; cell culture media, plasma or biological fluid) was 20 µM (≈ 6.15 µg/mL) and the solubility ([4]; pH 2 (HCl) buffer, pH 2, simulated gastric fluid) was 12 µM (≈ 3.69 µg/mL). The solubility ([4]; pH 7.4 (phosphate) buffer, pH 7.4, aqueous buffer) was < 1 µM, the Papp A→B [5] was 9.5 ×10⁻⁶ cm/s and the Papp B→A [5] was 8.4 ×10⁻⁶ cm/s. For the same compound, the efflux ratio [6] was 0.9, the Toleration ([7]; 210 mg/kg/day for 14 days, mice) was “well tolerated” and the “Earliest deaths in treated mice” value ([7]; long-term dosing in mice) was 59 days. For the same compound, the half-life at 1 μM ([8]; Sprague-Dawley, rat, […], pH 7.4) was > 60 min, the “% remaining after a 60-min incubation, Rat” value ([8]; […], 60-min incubation) was 64% and the “Hepatic Extraction Ratio Rat” value ([8]; rat microsomes) was 0.4. The half-life at 1 μM ([9]; CD-1, mouse, liver microsomes) was 49 min, the half-life at 1 μM ([9]; CD-1, mouse, mouse liver microsomes) was 49 min and the “Hepatic Extraction Ratio Mouse” value ([9]; mouse) was 0.7. For the same compound, the “% remaining after a 60-min incubation, Mouse” value ([9]; mouse liver microsomes, 60-min incubation) was 40%, the “Hepatic Extraction Ratio Mouse” value ([9]; mouse microsomes) was 0.7 and the “% remaining after a 60-min incubation, Human” value ([10]; human liver microsomes, 60-min incubation) was 99%. The half-life at 1 μM ([10]; human liver microsomes) was > 60 min, the half-life at 1 μM ([10]; liver microsomes) was > 60 min and the Kp ([11]; female, FVB, mouse, brain and plasma, po, 10 mg/kg) was 0.5. The bioavailability ([11]; female, FVB, mouse, plasma, po, 10 mg/kg) was 46%, the “Brain exposure (AUClast) ranking” value ([11]; single oral dose, FVB mice, brain) was “highest AUC values in brain” and the concentration at 3 days ([12]; 40 mg/kg, Brain Concentration (Css), brain) was 1310 ± 390 nM. The concentration at 3 days ([12]; 40 mg/kg, Plasma Concentration (Css), plasma) was 1490 ± 150 nM, the concentration at 3 days ([12]; 80 mg/kg, Brain Concentration (Css), brain) was 2700 ± 520 nM and the concentration at 3 days ([12]; 80 mg/kg, Plasma Concentration (Css), plasma) was 2140 ± 580 nM. For the same compound, the concentration at 3 days ([12]; 130 mg/kg, Brain Concentration (Css), brain) was 3740 ± 410 nM, the concentration at 3 days ([12]; 130 mg/kg, Plasma Concentration (Css), plasma) was 2500 ± 670 nM and the concentration at 3 days ([12]; 210 mg/kg, Brain Concentration (Css), brain) was 3230 ± 2620 nM. For the same compound, the concentration at 3 days ([12]; 210 mg/kg, Plasma Concentration (Css), plasma) was 1980 ± 1240 nM.
In the case of `COc1ccnc(Nc2nc(-c3cc(-c4ccccc4)no3)cs2)c1` [IND112, (4-Methoxy-pyridin-2-yl)-[4-(3-phenyl-isoxazol-5-yl)-thiazol-2-yl]-amine], the EC50 [1] is reported as > 10000 nM, the EC50 ([2]; AMT analogs tested for potency) is reported as 0.251 µM and the EC50 [3] is reported as 251 nM.
For `COc1ccc(Nc2nc(-c3cc(-c4ccccc4)no3)cs2)nc1` [IND120, (5-Methoxy-pyridin-2-yl)-[4-(3-phenyl-isoxazol-5-yl)-thiazol-2-yl]-amine], the EC50 [1] was > 10000 nM, the EC50 ([2]; AMT analogs tested for potency) was 0.229 µM and the EC50 [3] was 229 nM.
With `COc1cc(OC)cc(C(=O)Nc2ccc(I)cn2)c1` [IND85671] the EC50 [13] was 1.1 µM and the EC50 [14] was 0.863 µM.
For `NC(=O)c1ccccc1NC(=O)c1cccnc1N1CCCCC1` [IND87406], the EC50 [13] was 1.12 µM, the EC50 [14] was 3.11 µM and the “Hepatic Extraction Ratio Mouse” value ([9]; mouse liver microsomes, predicted hepatic extraction) was 0.91. The half-life at 1 μM ([9]; mouse, mouse liver microsomes) was 6.35 min, the “Hepatic Extraction Ratio Human” value ([10]; human liver microsomes, predicted hepatic extraction) was 0.65 and the half-life at 1 μM ([10]; human liver microsomes) was 37.1 min.
With `CCOC(=O)c1[nH]c2c(c1C)C(=O)CC(c1ccco1)C2` (stereo not shown) [IND87564] the EC50 [13] was 0.25 µM and the EC50 [14] was 1.12 µM.
With `Cc1cccc(Nc2nc(-c3ccc(-c4ccc(OCC#N)nc4)cc3)cs2)n1` [IND-0116165] the “Analiza solubility (μM) pH 7.4” value [15] was <0.4 μM, the solubility ([16]; pH 1.2, simulated gastric fluid) was 2.2 µM (≈ 0.879 µg/mL) and the solubility ([16]; pH 7.4, aqueous buffer) was < 0.4 µM.
For `COc1ccc(-c2csc(Nc3ccc(C(F)(F)F)cn3)n2)cc1OC` [compound 12, [4-(3,4-dimethoxyphenyl)-thiazol-2-yl]-(5-trifluoromethylpyridin-2-yl)-amine], the “P-gp substrate status, absorptive vs secretory permeability” value [17] was “greater permeability in the absorptive direction”, the “Dividing ELISA pEC50 (μM) 1st Expt.” value [2, 23] was 5.53 and the “Dividing ELISA pEC50 (μM) 2nd Expt.” value [2, 24] was 5.69. For the same compound, the “Dividing ELISA pEC50 (μM) 3rd Expt.” value [2, 25] was 5.58, the “Dividing ELISA pEC50 (μM) Mean” value [2, 26] was 5.60 and the EC50 [2, 27] was 2.53 µM. The EC50 [2, 28] was 2.93 µM, the EC50 [2, 29] was 2.05 µM and the EC50 [2, 30] was 2.62 µM. The EC50 [2, 31] was 2.53 µM, the EC50 [18] was > 32 µM and the “metabolic stability (in words)” value [19] was “excellent stability”. The EC50 [20] was > 32 µM, the “Permeability PA→B” value [21] was 9.4 10^−6 cm/sec and the “Permeability PB→A” value [21] was 8.7 10^−6 cm/sec. The “Microsome stability T1/2” value ([8]; […]) was 150 min.
For `COc1ccc(-c2csc(Nc3cc4ccccc4cn3)n2)cc1OC` [compound 17, [4-(3,4-dimethoxyphenyl)-thiazol-2-yl]isoquinolin-3-yl-amine], the “P-gp substrate status, absorptive vs secretory permeability” value [17] was “greater permeability in the absorptive direction”, the EC50 [2, 28] was 0.101 µM and the EC50 [18] was > 32 µM. For the same compound, the “metabolic stability (in words)” value [19] was “excellent stability”, the EC50 [20] was > 32 µM and the “Microsome stability T1/2” value ([8]; […]) was 83 min.
For `COc1ccc(-c2csc(Nc3ccc4ccccc4n3)n2)cc1OC` [compound 18, [4-(3,4-dimethoxyphenyl)-thiazol-2-yl]-quinolin-2-yl-amine], the “P-gp substrate status, absorptive vs secretory permeability” value [17] was “greater permeability in the absorptive direction”, the “Dividing ELISA pEC50 (μM) 1st Expt.” value [2, 23] was 6.31 and the “Dividing ELISA pEC50 (μM) 2nd Expt.” value [2, 24] was 6.47. For the same compound, the “Dividing ELISA pEC50 (μM) 3rd Expt.” value [2, 25] was 6.34, the “Dividing ELISA pEC50 (μM) Mean” value [2, 26] was 6.38 and the EC50 [2, 27] was 0.43 µM. The EC50 [2, 28] was 0.486 µM, the EC50 [2, 29] was 0.34 µM and the EC50 [2, 30] was 0.453 µM. The EC50 [2, 31] was 0.426 µM, the EC50 [18] was > 32 µM and the “metabolic stability (in words)” value [19] was “excellent stability”. The EC50 [20] was > 32 µM, the “Permeability PA→B” value [21] was 9.2 10^−6 cm/sec and the “Permeability PB→A” value [21] was 8.9 10^−6 cm/sec. The “Microsome stability T1/2” value ([8]; […]) was 69 min.
In the case of `Cc1ccc(Nc2nc(-c3c(-c4ccccc4)noc3C)cs2)nc1` [compound 28, [4-(5-Methyl-3-phenylisoxazol-4-yl)-thiazol-2-yl]-(5-methylpyridin-2-yl)-amine], the “P-gp substrate status, absorptive vs secretory permeability” value [17] is reported as “greater permeability in the absorptive direction”, the “Dividing ELISA pEC50 (μM) 1st Expt.” value [2, 23] is reported as 4.52 and the “Dividing ELISA pEC50 (μM) 2nd Expt.” value [2, 24] is reported as 4.82. For the same compound, the “Dividing ELISA pEC50 (μM) 3rd Expt.” value [2, 25] was >4.5, the EC50 [2, 27] was > 26 µM and the EC50 [2, 28] was 30 µM. The EC50 [2, 29] was 15.2 µM, the EC50 [2, 30] was > 32 µM and the EC50 [2, 31] was > 26 µM. For the same compound, the EC50 [18] was > 32 µM, the melting point [22] was 267 to 269 °C and the EC50 [20] was > 32 µM. For the same compound, the “Permeability PA→B” value [21] was 11.2 10^−6 cm/sec, the “Permeability PB→A” value [21] was 8.6 10^−6 cm/sec and the “Microsome stability T1/2” value ([8]; […]) was 19 min.
